For twelve molecules, TGI results are on record in PubChem BioAssay (NCI).

SMILES strings stand for the structures.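 A five-concentration, 48-hour dose response in 96-well plates underlies each endpoint, interpolated linearly between surrounding concentrations. TGI: concentration producing complete growth inhibition.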 Where only a bound is given, the exact number is not on record here.

Test systems include OVCAR-3 ovarian; OVCAR-4 ovarian; SNB-75 CNS; HT29 colon; SK-MEL-5 melanoma; SK-OV-3 ovarian; U251 CNS; RPMI-8226 leukemia; EKVX NSCLC; COLO 205 colon; MALME-3M melanoma; HOP-92 NSCLC.
Common to all, as to experiment: growth of human tumour cells (NCI), 48 h

Turning to `Cc1cc2c(cc1Cl)SC(NNC1=NCCN1)=NS2(=O)=O`, the TGI in the test with OVCAR-3 ovarian, with OVCAR-4 ovarian, in the test with SNB-75 CNS, with HT29 colon, with SK-MEL-5 melanoma and with SK-OV-3 ovarian was greater than 10 µM each time. In addition, the TGI in the test with U251 CNS, in the test on RPMI-8226 leukemia, in the test with EKVX NSCLC, with COLO 205 colon and in the test with MALME-3M melanoma was greater than 10 µM in each case.

For `CN(C)C(=NC#N)N(Cc1ccccc1)Cc1ccccc1`, the TGI in the test with OVCAR-3 ovarian, in the test with OVCAR-4 ovarian, in the test with SNB-75 CNS, in the test with HT29 colon, with SK-MEL-5 melanoma and with SK-OV-3 ovarian was greater than 100 µM in each case. For the same molecule, the TGI with U251 CNS, with RPMI-8226 leukemia, with EKVX NSCLC, with HOP-92 NSCLC, in the test with COLO 205 colon and with MALME-3M melanoma was greater than 100 µM each time.

For `O=c1[nH]nc(Cc2ccccc2)n1/N=C/c1ccc([N+](=O)[O-])cc1`, the TGI in the test with OVCAR-3 ovarian, in the test on OVCAR-4 ovarian, in the test with SNB-75 CNS, in the test with HT29 colon, in the test with SK-MEL-5 melanoma and with U251 CNS was greater than 100 µM throughout. Also, the TGI in the test on EKVX NSCLC, in the test on HOP-92 NSCLC, with COLO 205 colon and in the test with MALME-3M melanoma was greater than 100 µM throughout.

Turning to `COc1cc(C2c3cc4c(cc3OC(NCCO)C2C)OCO4)cc(OC)c1O` (configuration not stated), the TGI in the test with OVCAR-3 ovarian is greater than 100 µM; in the test on OVCAR-4 ovarian, greater than 100 µM; with SNB-75 CNS, 77.3 µM; with HT29 colon, greater than 100 µM; in the test with SK-MEL-5 melanoma, 56.5 µM; in the test with U251 CNS it was 87.8 µM. In addition, the TGI with RPMI-8226 leukemia was 19 µM; in the test with HOP-92 NSCLC it was greater than 100 µM; in the test with COLO 205 colon, 84.2 µM; in the test with MALME-3M melanoma it was greater than 100 µM.

Consider `Cc1ccc(-c2nnc3s/c(=C\c4ccc(N(C)C)cc4)c(=O)n23)cc1`, for which the TGI in the test with OVCAR-3 ovarian, in the test on OVCAR-4 ovarian, with SNB-75 CNS, with SK-MEL-5 melanoma, in the test with SK-OV-3 ovarian and with U251 CNS was greater than 100 µM in each case. Besides, the TGI in the test with RPMI-8226 leukemia, in the test on EKVX NSCLC, in the test with HOP-92 NSCLC, in the test with COLO 205 colon and with MALME-3M melanoma was greater than 100 µM each time.

As to `O=C(O)CCN(CCCN(CCC(=O)O)CCC(=O)O)CCC(=O)O`, the TGI with OVCAR-3 ovarian, in the test on OVCAR-4 ovarian, with SNB-75 CNS, in the test on HT29 colon, with SK-MEL-5 melanoma and in the test on SK-OV-3 ovarian was greater than 100 µM in each case. The TGI with U251 CNS, in the test with RPMI-8226 leukemia, with EKVX NSCLC, in the test with HOP-92 NSCLC, in the test on COLO 205 colon and with MALME-3M melanoma was greater than 100 µM throughout.

As for `O=C(Nc1cccc(C(=O)NCCCO)c1)/C(=C/c1ccccc1)NC(=O)c1ccccc1`, the TGI in the test with OVCAR-3 ovarian, with OVCAR-4 ovarian, in the test with SNB-75 CNS, in the test with HT29 colon, in the test on SK-MEL-5 melanoma and in the test with SK-OV-3 ovarian was greater than 100 µM throughout. Moreover, the TGI with U251 CNS, in the test with RPMI-8226 leukemia, in the test on EKVX NSCLC, with HOP-92 NSCLC, with COLO 205 colon and with MALME-3M melanoma was greater than 100 µM throughout.

Regarding `CN(C)c1ccc(/C=C(\NC(=O)c2ccccc2)C(=O)Nc2cccc(C(=O)NCCCO)c2)cc1`, the TGI in the test on OVCAR-3 ovarian, in the test on OVCAR-4 ovarian, in the test on SNB-75 CNS, in the test on HT29 colon, in the test with SK-MEL-5 melanoma and in the test on SK-OV-3 ovarian was greater than 100 µM throughout. In addition, the TGI with U251 CNS, with RPMI-8226 leukemia, in the test with EKVX NSCLC, in the test on HOP-92 NSCLC, in the test with COLO 205 colon and in the test on MALME-3M melanoma was greater than 100 µM each time.

Turning to `NC(CCCCNCc1ccccc1)C(=O)O` (configuration not stated), the TGI in the test on OVCAR-3 ovarian, with OVCAR-4 ovarian, in the test on SNB-75 CNS, in the test on HT29 colon, with SK-MEL-5 melanoma and in the test on SK-OV-3 ovarian was greater than 100 µM in each case. Further, the TGI with U251 CNS, with RPMI-8226 leukemia, in the test on EKVX NSCLC, in the test with HOP-92 NSCLC, in the test with COLO 205 colon and in the test with MALME-3M melanoma was greater than 100 µM throughout.

As to `CC(=O)NNc1nc(C)c(C(=O)/C=C/c2ccc(Cl)c(Cl)c2)s1`, the TGI in the test with OVCAR-3 ovarian, in the test on SNB-75 CNS, in the test with HT29 colon, in the test with SK-MEL-5 melanoma, with SK-OV-3 ovarian and in the test with U251 CNS was greater than 100 µM in each case. Moreover, the TGI in the test on RPMI-8226 leukemia, in the test on EKVX NSCLC, in the test with HOP-92 NSCLC, with COLO 205 colon and with MALME-3M melanoma was greater than 100 µM in each case.

Regarding `NC(N)=NS(=O)(=O)c1ccc(NC(=O)c2cccc3c(N)c4ccccc4nc23)cc1`, the TGI in the test with OVCAR-3 ovarian, in the test on OVCAR-4 ovarian, in the test on SNB-75 CNS, with SK-MEL-5 melanoma, in the test with SK-OV-3 ovarian and with U251 CNS was greater than 100 µM throughout. In addition, the TGI in the test on RPMI-8226 leukemia, in the test with EKVX NSCLC, with COLO 205 colon and in the test with MALME-3M melanoma was greater than 100 µM in each case.

Consider `O=c1[nH]c2c(c(=O)[nH]1)C(c1ccc([N+](=O)[O-])cc1)c1c([nH]c(=O)[nH]c1=O)O2`, for which the TGI in the test on OVCAR-3 ovarian, in the test with OVCAR-4 ovarian, in the test with HT29 colon, in the test on SK-MEL-5 melanoma, in the test on SK-OV-3 ovarian and in the test on U251 CNS was greater than 100 µM in each case. Also, the TGI in the test on RPMI-8226 leukemia is 75 µM; with EKVX NSCLC, greater than 100 µM; with COLO 205 colon, greater than 100 µM.
